We go through 33 compounds from US20060223996A1, “IL-12 modulatory compounds” (Synta Pharmaceuticals Corp., priority 2004, published 2006).

The subject of the assay is IL-12. Description: Human in vitro assay: inhibition of IL-12 production in IFNγ/LPS- or IFNγ/SAC-stimulated human PBMC or THP-1 cells (ELISA). As to conditions: read-out: IC50 Range (representative in vitro IC50 data). Format: cell-based. In short, it runs like this:
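Sandwich ELISA for IL-12 (p70, p40) on supernatants collected 18 h after stimulation gave IC50 values; MTS monitored viability. THP-1 cells: IFNγ 100 U/mL priming 22 h, SAC 0.025%. PBMC: IFNγ 30 U/mL for 22 h plus LPS 1 μg/mL, or IFNγ 100 U/mL plus SAC 0.01%. Final DMSO 0.25%.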
(In an ELISA, binding on a coated surface is turned into a signal by an enzyme label.)

The IC50 is the midpoint of a concentration-inhibition curve. As for `CN(C)c1cccc(NC(=O)c2cc(OCCO)nc(N3CCOCC3)n2)c1` [Compound 309, 6-(2-Hydroxy-ethoxy)-2-morpholin-4-yl-pyrimidine-4-carboxylic acid (3-dimethylamino-phenyl)-amide], the IC50 is below 1 µM.
For `O=C(Nc1cc(OCCN2CCOCC2)nc(N2CCOCC2)n1)Nc1ccccc1Br` [Compound 129, 1-(2-Bromo-phenyl)-3-[2-morpholin-4-yl-6-(2-morpholin-4-yl-ethoxy)-pyrimidin-4-yl]-urea], the concentration for half-maximal inhibition (IC50) was at least 1 µM.
Regarding `CNc1cccc(NC(=O)c2cc(OCCN3CCOCC3)nc(N3CCOCC3)n2)c1` [Compound 280, 2-Morpholin-4-yl-6-(2-morpholin-4-yl-ethoxy)-pyrimidine-4-carboxylic acid (3-methylamino-phenyl)-amide], the IC50 was below 1 µM.
Regarding `CCc1c[nH]c2ccc(NC(=O)c3cc(N4CCCCC4)nc(N4CCOCC4)n3)cc12` [Compound 179, 2-Morpholin-4-yl-6-piperidin-1-yl-pyrimidine-4-carboxylic acid (3-ethyl-1H-indol-5-yl)-amide], the IC50 was below 1 µM.
The figure for `Cc1[nH]c2ccc(NC(=O)c3cc(NCC(=O)N4CCCCC4)nc(N4CCOCC4)n3)cc2c1C` [Compound 109, 2-Morpholin-4-yl-6-(2-oxo-2-piperidin-1-yl-ethylamino)-pyrimidine-4-carboxylic acid (2,3-dimethyl-1H-indol-5-yl)-amide] is below 1 µM; for `Cc1cc(NC(=O)c2cc(OCCN3CCOCC3)nc(N3CCOCC3)n2)no1` [Compound 48, 2-Morpholin-4-yl-6-(2-morpholin-4-yl-ethoxy)-pyrimidine-4-carboxylic acid (5-methyl-isoxazol-3-yl)-amide] it is at least 1 µM.
The figure for `COCCN(C)c1cc(C(=O)NCCN(C)C)nc(N2CCOCC2)n1` [Compound 162, 6-[(2-Methoxy-ethyl)-methyl-amino]-2-morpholin-4-yl-pyrimidine-4-carboxylic acid (2-dimethylamino-ethyl)-amide] is at least 1 µM.
Then `COCCN(C)c1cc(C(=O)Nc2cc(C)on2)nc(N2CCOCC2)n1` [Compound 237, 6-[(2-Methoxy-ethyl)-methyl-amino]-2-morpholin-4-yl-pyrimidine-4-carboxylic acid (5-methyl-isoxazol-3-yl)-amide], with at least 1 µM; and `Cc1[nH]c2ccc(NC(=O)c3cc(OCCN4CCNCC4)nc(N4CCOCC4)n3)cc2c1C` [Compound 246, N-(2,3-dimethyl-1H-indol-5-yl)-2-morpholino-6-(2-(piperazin-1-yl)ethoxy)pyrimidine-4-carboxamide], with below 1 µM; and `Cc1[nH]c2ccc(NC(=O)c3cc(Nc4ccc5[nH]c(C)c(C)c5c4)nc(N4CCOCC4)n3)cc2c1C` [Compound 255, N-(2,3-dimethyl-1H-indol-5-yl)-6-(2,3-dimethyl-1H-indol-5-ylamino)-2-morpholinopyrimidine-4-carboxamide], with below 1 µM.
On to `COCCN(C)c1cc(C(=O)Nc2cccc(N(C)C)c2)nc(N2CCOCC2)c1` [Compound 159, 4-[(2-Methoxy-ethyl)-methyl-amino]-6-morpholin-4-yl-pyridine-2-carboxylic acid (3-dimethylamino-phenyl)-amide], for which the IC50 was below 1 µM.
In the case of `CN(C)c1cccc(NC(=O)c2cc(N(C)CCO)nc(N3CCOCC3)n2)c1` [Compound 303, 6-[(2-Hydroxy-ethyl)-methyl-amino]-2-morpholin-4-yl-pyrimidine-4-carboxylic acid (3-dimethylamino-phenyl)-amide], the IC50 was below 1 µM.
For the compound `CONc1cc(C(=O)Nc2ccc3[nH]c(C)c(C)c3c2)nc(N2CCOCC2)c1` [Compound 161, 4-Methoxyamino-6-morpholin-4-yl-pyridine-2-carboxylic acid (2,3-dimethyl-1H-indol-5-yl)-amide], the IC50 is below 1 µM.
The figure for `O=C(Oc1ccc2[nH]ccc2c1)c1cc(OCCc2ccccn2)nc(N2CCOCC2)n1` [Compound 72, 2-Morpholin-4-yl-6-(2-pyridin-2-yl-ethoxy)-pyrimidine-4-carboxylic acid 1H-indol-5-yl ester] is at least 1 µM.
In the case of `Cc1cccc(NNC(=O)c2cc(OCCc3ccccn3)nc(N3CCOCC3)n2)c1` [Compound 79, 2-Morpholin-4-yl-6-(2-pyridin-2-yl-ethoxy)-pyrimidine-4-carboxylic acid N′-m-tolyl-hydrazide], the IC50 was at least 1 µM.
Then `O=C(Nc1cccc(O)c1)C(=O)Nc1cc(N2CCOCC2)nc(OCCc2ccccn2)n1` [Compound 87, N-(3-Hydroxy-phenyl)-N′-[6-morpholin-4-yl-2-(2-pyridin-2-yl-ethoxy)-pyrimidin-4-yl]-oxalamide], with at least 1 µM; and `Cc1[nH]c2ccc(NC(=O)c3cc(N(C)CC(=O)N4CCOCC4)nc(N4CCOCC4)n3)cc2c1C` [Compound 114, 6-[Methyl-(2-morpholin-4-yl-2-oxo-ethyl)-amino]-2-morpholin-4-yl-pyrimidine-4-carboxylic acid (2,3-dimethyl-1H-indol-5-yl)-amide], with below 1 µM.
The figure for `CC(C)c1cccc(NC(=O)c2cc(OCCN3CCOCC3)nc(N3CCOCC3)n2)c1` [Compound 213, N-(3-isopropylphenyl)-2-morpholino-6-(2-morpholinoethoxy)pyrimidine-4-carboxamide] is at least 1 µM; for `O=C(Nc1ccc2[nH]c3c(c2c1)CCCC3)Nc1cc(OCCN2CCOCC2)nc(N2CCOCC2)n1` [Compound 325, 1-[2-Morpholin-4-yl-6-(2-morpholin-4-yl-ethoxy)-pyrimidin-4-yl]-3-(6,7,8,9-tetrahydro-5H-carbazol-3-yl)-urea] it is below 1 µM; for `CN(CCO)c1cc(C(=O)Nc2cccc(-n3cccn3)c2)nc(N2CCOCC2)n1` [Compound 315, 6-[(2-Hydroxy-ethyl)-methyl-amino]-2-morpholin-4-yl-pyrimidine-4-carboxylic acid (3-pyrazol-1-yl-phenyl)-amide] it is below 1 µM.
Then `Cc1[nH]c2ccc(NC(=O)c3cc(OCCN4CCOCC4)nc(N4CCOCC4)c3)cc2c1C` [Compound 66, N-(2,3-Dimethyl-1H-indol-5-yl)-2-morpholin-4-yl-6-(2-morpholin-4-yl-ethoxy)-isonicotinamide], with at least 1 µM; and `Cc1cccc(OC(=O)Nc2cc(OCCc3ccccn3)nc(N3CCOCC3)n2)c1` [Compound 83, [2-Morpholin-4-yl-6-(2-pyridin-2-yl-ethoxy)-pyrimidin-4-yl]-carbamic acid m-tolyl ester], with at least 1 µM; and `O=C(Nc1cccc(-n2cccn2)c1)c1cc(OCCN2CCOCC2)nc(N2CCOCC2)n1` [Compound 313, 2-Morpholin-4-yl-6-(2-morpholin-4-yl-ethoxy)-pyrimidine-4-carboxylic acid (3-pyrazol-1-yl-phenyl)-amide], with below 1 µM.
For `CC(=O)N1CCN(c2cc(C(=O)Nc3ccc4[nH]c5c(c4c3)CCCC5)nc(N3CCOCC3)n2)CC1` [Compound 262, 6-(4-acetylpiperazin-1-yl)-2-morpholino-N-(2,3,4,9-tetrahydro-1H-carbazol-6-yl)pyrimidine-4-carboxamide], the IC50 is below 1 µM.
Then `Cn1c(=O)oc2ccc(NC(=O)c3cc(OCCN4CCOCC4)nc(N4CCOCC4)n3)cc21` [Compound 218, N-(3-methyl-2-oxo-2,3-dihydrobenzo[d]oxazol-5-yl)-2-morpholino-6-(2-morpholinoethoxy)pyrimidine-4-carboxamide], with below 1 µM; and `COCCN(C)c1cc(C(=O)Nc2cccc(C(C)C)c2)nc(N2CCOCC2)n1` [Compound 205, N-(3-isopropylphenyl)-6-((2-methoxyethyl)(methyl)amino)-2-morpholinopyrimidine-4-carboxamide], with below 1 µM.
As for `O=C(Nc1cccc(-n2cccn2)c1)Nc1cc(OCCN2CCOCC2)nc(N2CCOCC2)n1` [Compound 327, 1-[2-Morpholin-4-yl-6-(2-morpholin-4-yl-ethoxy)-pyrimidin-4-yl]-3-(3-pyrazol-1-yl-phenyl)-urea], the IC50 is at least 1 µM.
With `Cn1c(=O)sc2cc(NC(=O)Nc3cc(OCCN4CCOCC4)nc(N4CCOCC4)n3)ccc21` [Compound 133, 1-(3-Methyl-2-oxo-2,3-dihydro-benzothiazol-6-yl)-3-[2-morpholin-4-yl-6-(2-morpholin-4-yl-ethoxy)-pyrimidin-4-yl]-urea], the IC50 was at least 1 µM.
For the compound `COCCN(C)c1cc(C(=O)Nc2cccc(-c3csc(C)n3)c2)nc(N2CCOCC2)n1` [Compound 245, 6-[(2-Methoxy-ethyl)-methyl-amino]-2-morpholin-4-yl-pyrimidine-4-carboxylic acid [3-(2-methyl-thiazol-4-yl)-phenyl]-amide], the IC50 was below 1 µM.
The figure for `Cc1cccc(NC(=O)c2cc(OCCN3CCOC3=O)nc(N3CCOCC3)n2)c1` [Compound 44, 2-Morpholin-4-yl-6-[2-(2-oxo-oxazolidin-3-yl)-ethoxy]-pyrimidine-4-carboxylic acid m-tolylamide] is at least 1 µM; for `O=C(Nc1ccc(Cl)c(Cl)c1)Nc1cc(N2CCOCC2)nc(OCCN2CCOCC2)n1` [Compound 119, 1-(3,4-Dichloro-phenyl)-3-[6-morpholin-4-yl-2-(2-morpholin-4-yl-ethoxy)-pyrimidin-4-yl]-urea] it is at least 1 µM; for `Cn1ncc2ccc(NC(=O)c3cc(OCCN4CCOCC4)nc(N4CCOCC4)n3)cc21` [Compound 216, N-(1-methyl-1H-indazol-6-yl)-2-morpholino-6-(2-morpholinoethoxy)pyrimidine-4-carboxamide] it is at least 1 µM.
On to `COCCN(C)c1cc(C(=O)Nc2ccc3c(C(F)(F)F)cc(C(F)(F)F)nc3n2)nc(N2CCOCC2)n1` [Compound 243, 6-[(2-Methoxy-ethyl)-methyl-amino]-2-morpholin-4-yl-pyrimidine-4-carboxylic acid (5,7-bis-trifluoromethyl-[1,8]naphthyridin-2-yl)-amide], for which the IC50 was at least 1 µM.
